Experimental data from patent US20250163057A1, “DCN-1 MODULATING COMPOUNDS AND METHODS OF USE THEREOF” (Cellarity, Inc., priority 2023, published 2025).
Like-named read-outs stand apart in the source and are kept apart here.

Legend:
[1] = system: Cullin-3 (CUL3) neddylation; test: AlphaLISA assay for Cullin-3 (CUL3) neddylation in TF 1 cells; assay type: cell-based; details: Homo sapiens, TF-1, 3 h, 3 hours treatment
Method in brief: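 TF 1 cells in unsupplemented IMDM treated with compound concentrations for 3 h, then lysed. CUL3 neddylation detected by AlphaLISA (biotinylated anti-NEDD8, anti-CUL3 acceptor beads overnight, streptavidin donor beads 1 h); normalized to vehicle (0%) and 1 μM DI-1548 (100%), IC50 from Hill fits.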

[2] = system: fetal hemoglobin gene HBG1; test: HBG1 Nanostring Assay in CD34+ HSPC erythroid differentiation culture; assay type: cell-based, human; details: for EC50: Homo sapiens, 240 h, HBG1 induction, Day10 of erythroid differentiation; for Nanostring Ymax obs (%): relative to a control compound (C1)
Method in brief: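 CD34+ HSPCs were dosed from day −2 (0.1% DMSO) through two-phase erythroid differentiation (EPO, transferrin, SCF, IL-3, insulin; IL-3 removed from day 7) at 37° C, 5% CO2. Day-10 lysates of 100K cells were hybridized at 67° C for 22 h for nCounter counting, normalized to ERCC and housekeeping controls. EC50 and Ymax were derived, with Ymax relative to a control compound.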

[3] = biological target: DCN1 protein (Homo sapiens (Human), UniProt Q96GG9); test: Intact Protein MS Analysis with the RapidFire-TOF System (covalent adduct formation); assay type: binding; details: MS Emax; 400 nM DCN1, 3 hours at room temperature
Method in brief: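 Tag-cleaved human DCN1 (400 nM) expressed in E. coli, in 25 mM Tris-HCl, 200 mM NaCl, 1 mM DTT, was incubated with 11 compound concentrations for 3 h at room temperature and quenched with 0.2% formic acid. Intact-protein Q-TOF MS with deconvolution detected the compound adduct mass.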

[4] = biological target: DCN1 (DCUND1) protein PONY domain (Homo sapiens (Human), UniProt Q96GG9); test: TR-FRET assay, DCN1 binding with FAM-labeled probe
Method in brief: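 Binding was read as the TR-FRET ratio between a FAM-tagged inhibitor probe and Tb-labeled biotinylated E. coli-expressed DCN1 PONY domain, measured 1, 5 and 24 h after compound addition. The two setups used 5 nM protein/20 nM FAM-probe or 0.31 nM protein/900 nM total probe (100 nM labeled), in TritonX buffer with 200 mM NaCl.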

[5] = TR FRET IC50 1 hr (nM), 1 hr after treatment with compound
[6] = 24 hr after treatment with compound, read-out: TR FRET IC50 24 hr

DCN1 (DCUND1) protein PONY domain, sequence (Q96GG9 60-248): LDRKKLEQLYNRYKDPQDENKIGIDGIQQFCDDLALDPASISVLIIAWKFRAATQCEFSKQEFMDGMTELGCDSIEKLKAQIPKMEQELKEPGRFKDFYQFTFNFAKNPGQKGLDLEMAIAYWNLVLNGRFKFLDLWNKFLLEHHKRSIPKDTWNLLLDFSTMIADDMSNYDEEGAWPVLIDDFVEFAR
DCN1 protein, sequence (Q96GG9 whole entry): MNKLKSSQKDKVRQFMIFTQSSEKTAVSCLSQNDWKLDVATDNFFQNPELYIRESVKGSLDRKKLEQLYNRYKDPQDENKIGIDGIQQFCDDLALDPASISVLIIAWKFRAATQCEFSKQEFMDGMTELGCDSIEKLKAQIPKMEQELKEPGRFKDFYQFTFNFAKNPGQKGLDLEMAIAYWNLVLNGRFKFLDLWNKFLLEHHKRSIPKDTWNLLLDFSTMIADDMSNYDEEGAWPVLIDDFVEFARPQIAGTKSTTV

With `CCN1C(=O)[C@@H](NC(=O)c2cccc(C(F)(F)F)c2)[C@@H](c2ccc(F)cc2)c2c(NC(=O)/C=C/C(=O)OC)nn(-c3ccccc3)c21` (racemic) [Compound I-136] as the compound, how does the IC50 [1] read?
The IC50 was at most 100 nM.

And the EC50 [2]?
Its EC50 is over 1000 nM.

And the “Nanostring Ymax obs (%)” value [2]?
Its value is “+ (Nanostring Ymax greater than or equal to 0.0 and less than or equal to 50.0)”.

And the “% Adduct Formation” value [3]?
The value was “+++ (MS Emax % adduct formation greater than 80.0 and less than or equal to 100.0)”.

And the IC50 [4, 5]?
Its IC50 is 200 to 1000 nM.

Which results are given for `CCN1C(=O)[C@@H](NC(=O)c2cccc(C(F)(F)F)c2)[C@@H](c2ccc(F)cc2)c2c(CNC(=O)CC#N)nn(-c3ccccc3)c21` (racemic) [Compound I-147, rac-N-((4R,5R)-3-((2-cyanoacetamido)methyl)-7-ethyl-4-(4-fluorophenyl)-6-oxo-1-phenyl-4,5,6,7-tetrahydro-1H-pyrazolo[3,4-b]pyridine-5-yl)-3-(trifluoromethyl)benzamide]?
IC50 [1]: 100 to 1000 nM; EC50 [2]: > 1000 nM; Nanostring Ymax obs (%) [2]: + (Nanostring Ymax greater than or equal to 0.0 and less than or equal to 50.0); % Adduct Formation [3]: + (MS Emax % adduct formation greater than or equal to 0.0 and less than or equal to 30.0); IC50 [4, 6]: 200 to 1000 nM; IC50 [4, 5]: 1000 to 3000 nM

`CCN1C(=O)[C@@H](NC(=O)c2cccc(C(F)(F)F)c2)[C@@H](c2ccc(F)cc2)c2c(NC(=O)CCl)nn(-c3ccccc3)c21` (racemic) [Compound I-161] was tested. Which IC50 [1] did it give?
Its IC50 is at most 100 nM.

What about the EC50 [2] of the same compound?
The EC50 was 100 to 1000 nM.

What about the “Nanostring Ymax obs (%)” value [2] of the same compound?
Its value is “++ (Nanostring Ymax greater than 50.0 and less than or equal to 100.0)”.

And the “% Adduct Formation” value [3]?
The value was “+ (MS Emax % adduct formation greater than or equal to 0.0 and less than or equal to 30.0)”.

And the IC50 [4, 6]?
The IC50 was at most 200 nM.

What about the IC50 [4, 5] of the same compound?
Its IC50 is 1000 to 3000 nM.

How did the IC50 [1] turn out when `CCN1C(=O)[C@@H](NC(=O)c2cccc(C(F)(F)F)c2)[C@@H](c2ccc(F)cc2)c2c(C(=O)N3CC(F)(F)C[C@H]3C#N)nn(-c3ccccc3)c21` (racemic) [Compound I-251, N-((4RS,5RS)-3-(I-2-cyano-4,4-difluoropyrrolidine-1-carbonyl)-7-ethyl-4-(4-fluorophenyl)-6-oxo-1-phenyl-4,5,6,7-tetrahydro-1H-pyrazolo[3,4-b]pyridine-5-yl)-3-(trifluoromethyl)benzamide] was run?
Its IC50 is at most 100 nM.

What about the EC50 [2] of the same compound?
Its EC50 is 100 to 1000 nM.

And the “Nanostring Ymax obs (%)” value [2]?
The value was “++ (Nanostring Ymax greater than 50.0 and less than or equal to 100.0)”.

And the “% Adduct Formation” value [3]?
The value was “+++ (MS Emax % adduct formation greater than 80.0 and less than or equal to 100.0)”.

What about the IC50 [4, 6] of the same compound?
Its IC50 is at most 200 nM.

What about the IC50 [4, 5] of the same compound?
Its IC50 is at most 200 nM.

Which results are given for `CCN1C(=O)[C@@H](NC(=O)c2cccc(C(F)(F)F)c2)[C@@H](C2CC2)c2c(C(=O)N3CCNC[C@@H]3C#N)nn(C3CCOCC3)c21` (single isomer, unassigned) [Compound I-371]?
IC50 [1]: ≤ 100 nM; EC50 [2]: 100 to 1000 nM; Nanostring Ymax obs (%) [2]: ++ (Nanostring Ymax greater than 50.0 and less than or equal to 100.0); % Adduct Formation [3]: +++ (MS Emax % adduct formation greater than 80.0 and less than or equal to 100.0); IC50 [4, 6]: ≤ 200 nM; IC50 [4, 5]: 200 to 1000 nM

Which IC50 [1] does the source give for `CCN1C(=O)[C@H](NC(=O)c2cccc(C(F)(F)F)c2)[C@H](c2ccc(F)cc2)c2c([C@@H](C)NC#N)nn(-c3ccccc3)c21` [Compound I-13, N-((4R,5R)-3-((R)-1-cyanamidoethyl)-7-ethyl-4-(4-fluorophenyl)-6-oxo-1-phenyl-4,5,6,7-tetrahydro-1H-pyrazolo[3,4-b]pyridin-5-yl)-3-(trifluoromethyl)benzamide] here?
Its IC50 is 100 to 1000 nM.

What about the EC50 [2] of the same compound?
Its EC50 is over 1000 nM.

And the “Nanostring Ymax obs (%)” value [2]?
The value was “+ (Nanostring Ymax greater than or equal to 0.0 and less than or equal to 50.0)”.

And the “% Adduct Formation” value [3]?
Its value is “++ (MS Emax % adduct formation greater than 30.0 and less than or equal to 80.0)”.

And the IC50 [4, 6]?
The IC50 was 1000 to 3000 nM.

What about the IC50 [4, 5] of the same compound?
Its IC50 is 1000 to 3000 nM.

`CCN1C(=O)[C@H](NC(=O)c2cccc(C(F)(F)F)c2)[C@H](c2ccc(F)cc2)c2c(CN(C)C#N)nn(-c3ccccc3)c21` [Compound I-20] was tested. Which IC50 [1] did it give?
The IC50 was over 1000 nM.

And the EC50 [2]?
The EC50 was over 1000 nM.

What about the “Nanostring Ymax obs (%)” value [2] of the same compound?
The value was “+ (Nanostring Ymax greater than or equal to 0.0 and less than or equal to 50.0)”.

And the “% Adduct Formation” value [3]?
The value was “++ (MS Emax % adduct formation greater than 30.0 and less than or equal to 80.0)”.

And the IC50 [4, 6]?
The IC50 was 1000 to 3000 nM.

And the IC50 [4, 5]?
The IC50 was 1000 to 3000 nM.

For `C=C(C(=O)O)c1nn(-c2ccccc2)c2c1[C@@H](c1ccc(F)cc1)[C@@H](NC(=O)c1cccc(C(F)(F)F)c1)C(=O)N2CC` [Compound I-77, 2-((4R,5R)-7-ethyl-4-(4-fluorophenyl)-6-oxo-1-phenyl-5-(3-(trifluoromethyl)benzamido)-4,5,6,7-tetrahydro-1H-pyrazolo[3,4-b]pyridin-3-yl)acrylic acid], which IC50 [1] is on record?
Its IC50 is over 1000 nM.

What about the EC50 [2] of the same compound?
Its EC50 is over 1000 nM.

And the “Nanostring Ymax obs (%)” value [2]?
Its value is “+ (Nanostring Ymax greater than or equal to 0.0 and less than or equal to 50.0)”.

And the “% Adduct Formation” value [3]?
Its value is “+ (MS Emax % adduct formation greater than or equal to 0.0 and less than or equal to 30.0)”.

What about the IC50 [4, 6] of the same compound?
Its IC50 is 1000 to 3000 nM.

What about the IC50 [4, 5] of the same compound?
The IC50 was 1000 to 3000 nM.

Which results are given for `CCN1C(=O)[C@@H](NC(=O)c2cccc(C(F)(F)F)c2)[C@H](c2ccc(F)cc2)c2c(CNC(=O)/C=C(\C)C(=O)OC)nn(-c3ccccc3)c21` [Compound I-104]?
IC50 [1]: 100 to 1000 nM; EC50 [2]: > 1000 nM; Nanostring Ymax obs (%) [2]: ++ (Nanostring Ymax greater than 50.0 and less than or equal to 100.0); % Adduct Formation [3]: + (MS Emax % adduct formation greater than or equal to 0.0 and less than or equal to 30.0); IC50 [4, 6]: 200 to 1000 nM; IC50 [4, 5]: 200 to 1000 nM

How did the IC50 [1] turn out when `C=C(CO)C(=O)NCc1nn(-c2ccccc2)c2c1[C@@H](c1ccc(F)cc1)[C@H](NC(=O)c1cccc(C(F)(F)F)c1)C(=O)N2CC` [Compound I-106] was run?
The IC50 was 100 to 1000 nM.

And the EC50 [2]?
Its EC50 is over 1000 nM.

What about the “Nanostring Ymax obs (%)” value [2] of the same compound?
The value was “++ (Nanostring Ymax greater than 50.0 and less than or equal to 100.0)”.

And the “% Adduct Formation” value [3]?
Its value is “+ (MS Emax % adduct formation greater than or equal to 0.0 and less than or equal to 30.0)”.

What about the IC50 [4, 6] of the same compound?
Its IC50 is 200 to 1000 nM.

And the IC50 [4, 5]?
The IC50 was 200 to 1000 nM.

With `CCN1C(=O)[C@H](NC(=O)c2cccc(C(F)(F)F)c2)[C@@H](c2ccc(F)cc2)c2c(CNC(=O)/C(C)=C/C(=O)OC)nn(-c3ccccc3)c21` [Compound I-108] as the compound, how does the IC50 [1] read?
Its IC50 is at most 100 nM.

What about the EC50 [2] of the same compound?
The EC50 was over 1000 nM.

And the “Nanostring Ymax obs (%)” value [2]?
Its value is “++ (Nanostring Ymax greater than 50.0 and less than or equal to 100.0)”.

What about the “% Adduct Formation” value [3] of the same compound?
The value was “+ (MS Emax % adduct formation greater than or equal to 0.0 and less than or equal to 30.0)”.

What about the IC50 [4, 6] of the same compound?
Its IC50 is 200 to 1000 nM.

What about the IC50 [4, 5] of the same compound?
Its IC50 is 200 to 1000 nM.

With `CCN1C(=O)[C@@H](NC(=O)c2cccc(C(F)(F)F)c2)[C@@H](c2ccc(F)cc2)c2c(CN(C)C(=O)/C=C/CN(C)C)nn(-c3ccccc3)c21` [Compound I-117] as the compound, how does the IC50 [1] read?
The IC50 was over 1000 nM.

And the EC50 [2]?
Its EC50 is over 1000 nM.

What about the “Nanostring Ymax obs (%)” value [2] of the same compound?
The value was “+ (Nanostring Ymax greater than or equal to 0.0 and less than or equal to 50.0)”.

And the “% Adduct Formation” value [3]?
The value was “+ (MS Emax % adduct formation greater than or equal to 0.0 and less than or equal to 30.0)”.

What about the IC50 [4, 6] of the same compound?
Its IC50 is 200 to 1000 nM.

And the IC50 [4, 5]?
Its IC50 is 200 to 1000 nM.

With `CCN1C(=O)[C@@H](NC(=O)c2cccc(C(F)(F)F)c2)[C@@H](c2ccc(F)cc2)c2c(NC(=O)/C=C/C(F)(F)F)nn(-c3ccccc3)c21` [Compound I-125] as the compound, how does the IC50 [1] read?
The IC50 was at most 100 nM.

And the EC50 [2]?
The EC50 was 100 to 1000 nM.

And the “Nanostring Ymax obs (%)” value [2]?
Its value is “+++ (Nanostring Ymax greater than 100.0)”.

What about the “% Adduct Formation” value [3] of the same compound?
Its value is “++ (MS Emax % adduct formation greater than 30.0 and less than or equal to 80.0)”.

And the IC50 [4, 6]?
Its IC50 is 200 to 1000 nM.

And the IC50 ([4]; read-out: TR FRET IC50 1 hr, 1 hr after treatment with compound)?
The IC50 was over 3000 nM.
